We go through 10 molecules from paper PMC10442857, “Cellular Uptake of a Fluorescent Ligand Reveals Ghrelin O-Acyltransferase Interacts with Extracellular Peptides and Exhibits Unexpected Localization for a Secretory Pathway Enzyme” (ACS Chemical Biology, 2023).

Square brackets hold non-standard residues; d marks the D form. Peptide text beside a SMILES is read from it. * marks the point of attachment. X1 = CN1/C(=C/C=C/C=C/C2=[N+](CCCCCC(=O)*)c3ccc(S(=O)(=O)[O-])cc3C2(C)C)C(C)(C)c2cc(S(=O)(=O)O)ccc21; 1Nal = N[C@@H](Cc1cccc2ccccc12)C(=O)O; Octanoyl = CCCCCCCC(=O)*; Dap = NC[C@H](N)C(=O)O

One assay has as its target T1, GHSR (GHS-R1a) (Homo sapiens, UniProt Q92847).
T1 construct: expressed in transfected cells; host or cells: HEK 293 cells transfected with GHS-R1a (membrane suspension)
Also on record: method as in Charron et al.[22]. Conditions: ref Charron et al.[22]; read-out: IC50 against GHSR; cited from earlier work.

The target in the next assay is T2, hGOAT (Homo sapiens, UniProt Q96T53).
T2 construct: 3xHA (C); FLAG (C); His6 (C); made in house; host or cells: Sf9 insect cells (baculovirus), crude membrane fraction
T2 sequence (Q96T53 1-435): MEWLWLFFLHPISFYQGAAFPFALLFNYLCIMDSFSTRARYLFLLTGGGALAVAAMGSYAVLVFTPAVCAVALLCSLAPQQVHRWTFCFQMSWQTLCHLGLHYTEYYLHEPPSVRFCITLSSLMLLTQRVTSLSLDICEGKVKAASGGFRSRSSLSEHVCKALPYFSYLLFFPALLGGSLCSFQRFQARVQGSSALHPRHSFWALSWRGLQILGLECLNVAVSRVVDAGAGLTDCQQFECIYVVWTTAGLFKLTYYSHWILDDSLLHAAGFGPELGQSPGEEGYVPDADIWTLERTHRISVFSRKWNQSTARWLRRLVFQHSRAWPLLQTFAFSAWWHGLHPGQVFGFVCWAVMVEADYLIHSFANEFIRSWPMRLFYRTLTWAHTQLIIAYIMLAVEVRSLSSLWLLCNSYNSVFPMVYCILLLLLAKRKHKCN
The assay is described as follows: hGOAT inhibition assay (octanoylation of GSSFLCAcDan by Sf9 membrane fraction expressing hGOAT, HPLC fluorescence). In kind it is biochemical. The settings on record: average of three independent trials ± one standard deviation; read-out: IC50 against hGOAT. On the procedure:
Assays were performed using previously reported protocols,[57],[58] as described in the Supporting Information. […]
hGOAT inhibition assays. Assays were performed using previously reported protocols.2-3 For each assay, membrane fraction from Sf9 cells expressing hGOAT was thawed on ice and homogenized by passage through an 18-gauge needle 10 times. Assays were performed with 50 µg of membrane protein, as determined by Bradford assay. Membrane fraction was pre-incubated with 1 µM methyl […]
arachidonyl fluorophosphonate (MAFP) and unlabeled peptide inhibitor or vehicle as indicated in 50 mM HEPES pH 7.0 for 30 minutes at room temperature prior to reaction initiation.4 All reactions were initiated by the addition of 1.5 µM GSSFLCAcDan and 300 µM octanoyl CoA.
Reactions were incubated for 30 minutes at room temperature under foil. All assays were stopped with the addition of 50 µL of 20% acetic acid in isopropanol, and solutions were clarified by protein precipitation with 16.7 µL of 20% trichloroacetic acid, followed by centrifugation (1,000 x g, 2 minutes). The supernatant was then analyzed using reverse-phase HPLC with fluorescence detection as previously described.2-3 Peak integrations for both substrate and product peaks were calculated using Chemstation for LC (Agilent Technologies). Data reported are the average of three independent determinations, with error reported as standard deviation.
For determination of IC50 values, the percent activity at each inhibitor concentration was calculated from HPLC integration data using equations 1 and 2: To determine an IC50 value for a given inhibitor, the plot of % activity versus [inhibitor] was fit to equation 3, with % activity0 denoting hGOAT activity in the presence of the vehicle alone. All reported IC50 values represent the average of a minimum of three independent trials.
(1) % activity = % peptide acylation in presence of inhibitor
% peptide acylation in absence of inhibitor
(2) % peptide octanoylation = Fluorescence of acylated peptide
Total peptide fluorescence (acylated and non-acylated)
(3) % activity = % activity * (1- [inhibitor] )

In assay [1] the target is human ghrelin O-acyltransferase (hGOAT) of the hGOAT inhibition assays (human) (UniProt Q96T53).
Assay [2] deals with T3, human ghrelin O-acyltransferase (hGOAT) of the hGOAT inhibition assays (human, UniProt Q96T53 1-435).
T3 sequence (looked up): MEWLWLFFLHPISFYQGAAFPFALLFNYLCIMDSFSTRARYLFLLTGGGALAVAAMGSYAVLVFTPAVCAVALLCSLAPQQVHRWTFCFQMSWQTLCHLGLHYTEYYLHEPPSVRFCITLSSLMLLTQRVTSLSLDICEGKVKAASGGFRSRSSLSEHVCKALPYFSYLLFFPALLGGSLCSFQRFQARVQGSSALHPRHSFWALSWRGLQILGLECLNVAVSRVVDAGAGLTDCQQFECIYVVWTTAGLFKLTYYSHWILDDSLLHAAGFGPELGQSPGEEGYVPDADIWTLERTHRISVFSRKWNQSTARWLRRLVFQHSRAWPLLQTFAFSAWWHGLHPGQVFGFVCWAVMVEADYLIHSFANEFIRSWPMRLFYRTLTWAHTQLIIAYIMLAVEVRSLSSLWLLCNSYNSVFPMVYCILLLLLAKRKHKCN
The assay is described as follows: cell-based or functional assay.

T1 sequence (Q92847 whole entry, species assumed): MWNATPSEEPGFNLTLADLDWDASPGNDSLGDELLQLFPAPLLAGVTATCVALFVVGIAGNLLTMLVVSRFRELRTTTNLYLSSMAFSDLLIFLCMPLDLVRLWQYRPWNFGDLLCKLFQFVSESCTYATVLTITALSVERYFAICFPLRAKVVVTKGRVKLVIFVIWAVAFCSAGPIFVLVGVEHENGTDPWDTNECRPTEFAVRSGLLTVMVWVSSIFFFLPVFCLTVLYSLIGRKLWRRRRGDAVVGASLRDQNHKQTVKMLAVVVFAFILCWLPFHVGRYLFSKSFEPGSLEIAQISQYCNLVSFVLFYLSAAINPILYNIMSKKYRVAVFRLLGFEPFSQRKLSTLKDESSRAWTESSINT

H-Inp-S-(6FN-Dap)-FLSPY-NH2 [ligand 7]: at GHSR (GHS-R1a), the half-maximal inhibitory concentration (IC50) is 9.6 nM.
Take `CCCCCCCC(=O)NC[C@H](NC(=O)[C@H](CO)NC(=O)CN)C(=O)N[C@@H](Cc1ccccc1)C(=O)N[C@@H](CC(C)C)C(=O)N[C@@H](CO)C(=O)N1CCC[C@H]1C(=O)N[C@@H](CCC(=O)O)C(N)=O` [ligand 9, H-GS-(C8-Dap)-FLSPE-NH2]: the IC50 at hGOAT is 580 ± 60 nM; on GHSR (GHS-R1a) it was 200 nM.
For “ligand 10, H-GS-(C8-Dap)-FLSPN-NH2 (peptide)”, in assay [1], the inhibition of hGOAT activity (IC50 against hGOAT) was 59 nM.
As to `CC(C)C[C@H](NC(=O)[C@H](Cc1cccc2ccccc12)NC(=O)[C@H](CN)NC(=O)[C@H](CO)NC(=O)CN)C(=O)N[C@@H](CO)C(=O)N1CCC[C@H]1C(=O)N[C@H](C(=O)N[C@@H](CCCCNC(=O)CCCCC[N+]1=C(/C=C/C=C/C=C2/N(C)c3ccc(S(=O)(=O)O)cc3C2(C)C)C(C)(C)c2cc(S(=O)(=O)[O-])ccc21)C(N)=O)[C@@H](C)O` [ligand 15, H-GS-Dap-Nal-1-LSPTK(SulfoCy5)-NH2] (H-GS[Dap][1Nal]LSPTK(X1)-NH2), the IC50 at hGOAT was found to be 17 ± 2 nM.
Consider “ligand 2, H-GS-(C8-Dap)-FLSPY-NH2 (peptide)”, for which the inhibition of hGOAT activity (IC50 against hGOAT) in assay [1] came to 64 nM.
Turning to `CCCCCCCC(=O)NC[C@H](NC(=O)[C@H](CO)NC(=O)CN)C(=O)N[C@@H](Cc1ccccc1)C(=O)N[C@@H](CC(C)C)C(=O)N[C@@H](CO)C(=O)N1CCC[C@H]1C(=O)N[C@@H](CC(N)=O)C(N)=O` [ligand 10, H-GS-(C8-Dap)-FLSPN-NH2] (H-GS[Dap](Octanoyl)FLSPN-NH2), the figures for the 50% inhibitory concentration (IC50) at hGOAT and on GHSR (GHS-R1a) were 59 ± 7 nM and 31.9 nM, respectively.
As to `CCCCCCCC(=O)NC[C@H](NC(=O)[C@H](CO)NC(=O)CN)C(=O)N[C@@H](Cc1ccccc1)C(=O)N[C@@H](CC(C)C)C(=O)N[C@@H](CO)C(=O)N1CCC[C@H]1C(=O)N[C@@H](Cc1ccc(O)cc1)C(N)=O` [ligand 2, H-GS-(C8-Dap)-FLSPY-NH2] (H-GS[Dap](Octanoyl)FLSPY-NH2), the results for the IC50 on hGOAT and at GHSR (GHS-R1a) were 64 ± 21 nM and 65 nM, respectively.
In assay [1], “ligand 11, H-GS-(C8-Dap)-FLSPT-NH2 (peptide)” yielded an inhibition of hGOAT activity (IC50 against hGOAT) of 27 nM.

B1: ligand 1, H-GS-Dap-FLSPY-NH2 (peptide)
chain: GSXFLSPY
HELM: PEPTIDE1{G.S.[NC[C@H](N[*:1])C(=O)[*:2]].F.L.S.P.Y.[am]}$$$$V2.0
SMILES: CC(C)C[C@H](NC(=O)[C@H](Cc1ccccc1)NC(=O)[C@H](CN)NC(=O)[C@H](CO)NC(=O)CN)C(=O)N[C@@H](CO)C(=O)N1CCC[C@H]1C(=O)N[C@@H](Cc1ccc(O)cc1)C(N)=O
Turning to B1, in assay [2], the “inhibition of hGOAT activity (IC50 against hGOAT)” value was determined as 104 nM.

B2: ligand 13, H-GS-Dap-Nal-2-LSPT-NH2 (peptide)
chain: GSXXLSPT
HELM: PEPTIDE1{G.S.[NC[C@H](N[*:1])C(=O)[*:2]].[O=C([C@H](Cc1ccc2ccccc2c1)N[*:1])[*:2]].L.S.P.T.[am]}$$$$V2.0
SMILES: CC(C)C[C@H](NC(=O)[C@H](Cc1ccc2ccccc2c1)NC(=O)[C@H](CN)NC(=O)[C@H](CO)NC(=O)CN)C(=O)N[C@@H](CO)C(=O)N1CCC[C@H]1C(=O)N[C@H](C(N)=O)[C@@H](C)O
Consider B2, for which the “inhibition of hGOAT activity (IC50 against hGOAT)” value in assay [2] is 16 nM.

The term IC50 denotes the concentration that inhibits the measured activity by half.
